Experimental data as given in ChEMBL document CHEMBL3286303, “Synthesis and in vitro antiproliferative evaluation of novel N-alkylated 6-isobutyl- and propyl pyrimidine derivatives” (Bioorg Med Chem Lett, 2014).

Tests used:
MCF7 [1] = experiment: Cell cycle arrest in human MCF7 cells as assessed as accumulation at S phase at 0.1 uM after 24 hrs by propidium iodide staining-based flow cytometric analysis relative to control; format: functional
SW-620 [2] = experiment: Cell cycle arrest in human SW620 cells as assessed as accumulation at sub-G1 phase at 0.1 uM after 48 hrs by propidium iodide staining-based flow cytometric analysis relative to control; format: functional
WI-38 [3] = experiment: Cell cycle arrest in human WI38 cells as assessed as accumulation at S phase at 0.1 uM after 24 hrs by propidium iodide staining-based flow cytometric analysis relative to control; conditions: wi-38, 24 h
K562 [4] = experiment: Cell cycle arrest in human K562 cells as assessed as accumulation at S phase at 0.1 uM after 48 hrs by propidium iodide staining-based flow cytometric analysis relative to control; format: functional
SW-620 [5] = experiment: Cell cycle arrest in human SW620 cells as assessed as accumulation at sub-G1 phase at 1 uM after 24 hrs by propidium iodide staining-based flow cytometric analysis relative to control; format: functional
MCF7 [6] = experiment: Cell cycle arrest in human MCF7 cells as assessed as accumulation at G1 phase at 0.1 uM after 24 hrs by propidium iodide staining-based flow cytometric analysis relative to control; format: functional
K562 [7] = experiment: Cell cycle arrest in human K562 cells as assessed as accumulation at G1 phase at 0.5 uM after 48 hrs by propidium iodide staining-based flow cytometric analysis relative to control; format: functional
K562 [8] = experiment: Cell cycle arrest in human K562 cells as assessed as accumulation at G2/M phase at 0.1 uM after 48 hrs by propidium iodide staining-based flow cytometric analysis relative to control; format: functional
K562 [9] = experiment: Cell cycle arrest in human K562 cells as assessed as accumulation at S phase at 1 uM after 48 hrs by propidium iodide staining-based flow cytometric analysis relative to control; format: functional
WI-38 [10] = experiment: Cell cycle arrest in human WI38 cells as assessed as accumulation at G2/M phase at 1 uM after 48 hrs by propidium iodide staining-based flow cytometric analysis relative to control; conditions: wi-38, 48 h

## COCn1c(CC(COCc2ccccc2)COCc2ccccc2)c(C)c(=O)n(COC)c1=O
MCF7 [1]
  Activity: 9.7%
SW-620 [2]
  Activity: 6.8%
WI-38 [3]
  Activity: 8.9%
K562 [4]
  Activity: 24.1%
SW-620 [5]
  Activity: 5.2%
MCF7 [6]
  Activity: 25.5%
K562 [7]
  Activity: 64.4%
K562 [8]
  Activity: 23.5%
K562 [9]
  Activity: 25.9%
WI-38 [10]
  Activity: 3.5%
